The term IC50 denotes the concentration that gives 50% inhibition.

The record followed here is patent publication US20250188110A1, “SPECIFIC SMALL MOLECULE INHIBITORS THAT BLOCK KMT9 METHYLTRANSFERASE ACTIVITY AND FUNCTION” (ALBERT-LUDWIGS-UNIVERSITÄT FREIBURG, priority 2021, published 2025).

Experiment [1] has as its target T1, KMT9 (Homo sapiens, UniProt Q9Y5N5).
T1 sequence (Q9Y5N5 1-214): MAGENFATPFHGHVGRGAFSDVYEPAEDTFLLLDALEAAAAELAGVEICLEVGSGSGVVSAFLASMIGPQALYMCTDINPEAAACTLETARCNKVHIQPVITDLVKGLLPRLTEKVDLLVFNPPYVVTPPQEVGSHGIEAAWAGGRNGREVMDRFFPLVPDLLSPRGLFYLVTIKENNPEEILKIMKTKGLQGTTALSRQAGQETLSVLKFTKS
T1 sequence (Q9UI30 1-120 isoform Q9UI30-2 partner): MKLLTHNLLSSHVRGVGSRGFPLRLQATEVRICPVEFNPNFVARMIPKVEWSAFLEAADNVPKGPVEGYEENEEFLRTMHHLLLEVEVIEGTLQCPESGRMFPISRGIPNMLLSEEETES
In words: Microscale thermophoresis (MST) KMT9 binding. As for the experimental part:
To determine the binding affinity of the compounds according to the present invention and KMT9, microscale thermophoresis (MST) analysis was performed with a NanoTemper Monolith NT.115 instrument (NanoTemper Technologies GmbH). KMT9 was labelled with a RED-Tris-NTA labelling kit (NanoTemper Technologies GmbH) based on the manufacturer's instructions. Buffer including 25 mM HEPES (pH 7.5), 100 mM NaCl, 1 mM DTT and 0.05% Tween was used for the reaction buffer. Varying concentrations of the tested compounds of formula (I) as indicated in Table 1 were titrated against His-tag labelled KMT9 proteins (20 nM). Samples were loaded into standard Capillaries (NanoTemper Technologies GmbH) and MST measurements were performed using 40% MST power and 100% LED power. For each set of binding experiments, MST measurement was carried out with Binding Affinity module in MO.Control program under Nano-RED Excitation. Datasets were processed with the MO.Affinity Analysis software (NanoTemper Technologies GmbH).
For the results of the microscale thermophoresis (MST) assay shown as “MST” in Table 1, “A” represents a Kd of equal to or less than 10 nM (Kd≤10 nM); “B” represents a Kd of greater than 10 nM and equal to or less than 100 nM (10 nM<Kd<100 nM); “C” represents a Kd of greater than 100 nM and equal to or less than 1000 nM (100 nM<Kd ≤ 1000 nM); “D” represents a Kd of greater than 1000 nM (1000 nM<Kd).

In experiment [2] the target is T1, KMT9. Put plainly: KMT9 thermal shift assay (SyproOrange). Type of experiment: binding. The following applies: 500 µM compound. As for the experimental part:
The assay was carried out in 96-well Hard-Shell PCR plates (Bio-Rad Laboratories Inc.). Assay buffer consisted of 50 mM BTP, 1 mM MgCl2 and 1 mM DTT at a pH of 8.5 (adjusted using 1 M HCl and 1 M NaOH). 20X inhibitor stock (in DMSO), 2X enzyme stock and 4X SyproOrange (SO) stock (both in assay buffer) were prepared. 1 μL of 20X compound, 4 μL of assay buffer, 10 μL of 2X KMT9 and 5 μL of 4X SO were pipetted. For the no-compound control, 20X inhibitor stock was replaced by DMSO. The final volume was 20 μL. The plate was spun down at 700 rpm for 1 min using a Hettich UNIVERSAL 320 centrifuge and incubated at 25° C., shaking at 600 rpm. After incubation, the plate was spun down for 1 min at 700 rpm and measurement was conducted using a CFX96 Touch Real-Time PCR Detection System (Bio-Rad Laboratories Inc.). The plate was equilibrated at 20° C. for 4 min and then heated stepwise at a rate of 1° C. per 15 s until 95° C. After every step, fluorescence was measured in FRET mode. Calculation of melting points was conducted by a Boltzman sigmoidal model using GraphPad Prism 7.0.
For the results of the thermal shift assay shown as “Thermal shift” in Table 1, “++++” represents a ΔTm of greater 20 K, “+++” represents a ΔTm of greater than 15 K and less than or equal to 20 K (15 K<ΔTm≤20 K); “++” represents a ΔTm of greater than 10 K and less than or equal to 15 K (10 K<ΔTm ≤ 15 K); “+” represents a ΔTm of equal to or less than 10 K (ΔTm≤10 K).

The target of experiment [3] is T1, KMT9. In words: KMT9 methyltransferase inhibition assay, 3H-SAM scintillation (entries 1-154). The format is biochemical. The note with it: entries 1-154: 3H-SAM assay, 25 nM KMT9, 5 μM ETF1. As for the experimental part: The assay was carried out in 0.5 mL Eppendorf tubes in duplicates. Assay buffer consisted of 50 mM BTP, 1 mM MgCl2, 1 mM DTT and 0.01% Triton-X^100 at a pH of 8.5 (adjusted using 1 M HCl and 1 M NaOH). 20X inhibitor stock (in DMSO), 2X enzyme stock and 4X substrate mix (both in assay buffer) were prepared. The substrate mix consisted of Tritium-labelled S-adenosylmethionine (3H-SAM), S-adenosylmethionine (SAM) and eukaryotic peptide chain release factor subunit1 (Homo sapiens, residues 140-275)(ETF1). Final assay concentrations were set to 25 nM KMT9, 0.3 μM 3H-SAM, 0.7 µM SAM and 5 μM ETF1. […] 5 μL of 4x substrate mix was added to initiate the reaction. The final reaction volume was 20 μL. For the positive control, the compound of formula (I) was replaced by DMSO; for the negative control, the compound of formula (I) was replaced by DMSO and KMT9 was replaced by assay buffer. The reaction mix was incubated in an Eppendorf thermomixer comfort at 30° C. for 2 h, shaking at 300 rpm. The reaction was quenched using 5 μL 50% trichloroacetic acid (TCA) and incubated at 25° C. for 5 minutes. 22 μL of the mixture was transferred into 96-well MultiScreen@HTS FB filter plates (Merck KGaA, Darmstadt, Germany) and washed four times with 10% TCA and two times with 100% ethanol. The plate was dried overnight, the filters were transferred into individual 6 mL Pony Vials (Perkin Elmer Inc, Waltham, MA, USA) and incubated in 3 mL of Ultima Gold scintillation cocktail (Perkin Elmer Inc, Waltham, MA, USA) for 30 minutes. The scintillation signal was measured for 3x 1 min using TriCarb 2910 TR (Perkin Elmer) scintillation counter in 3H CPM mode (LL: 0, UL: 18.6). Inhibition was calculated using the following formula: […]
With xc: signal of compound, Xpos: mean signal of positive control, Xneg: mean signal of negative control. Data fitting was carried out by GraphPad 7.0 using nonlinear fit ([Inhibitor]vs. response-variable slope (four parameters)).
For the results of the methyltransferase inhibition assay shown as “Inhibition” in Table 1, “I” represents an IC50 less than 0.1 μM, “II” represents an IC50 equal or higher than 0.1 μM and less than 1 μM, “III” represents an IC50 equal or higher than 1 µM and less than 10 µM and “IV” represents an IC50 equal or higher than 10 µM

The mark [4] stands for this setting: microscale thermophoresis, His-tag labelled KMT9 (20 nM), read-out: MST.
Where [5] appears, read: ΔTm, 2 μM KMT9, 5X SO, read-out: Thermal shift.
Where [6] appears, read: 2 μM KMT9, read-out: Thermal shift (ΔTm).

Like-named read-outs stand apart in the source and are kept apart here. A value given as a limit tells only on which side of the number the result lay.

Regarding `CNc1ncnc2c1ccn2[C@@H]1C[C@H](C[S+]([O-])CCCNCCc2ccccc2)[C@@H](O)[C@H]1O` (stereo partly drawn) [428 (300), (1R,2S,3R,5S)-3-(4-(Methylamino)-7H-pyrrolo[2,3-d]pyrimidin-7-yl)-5-(((3-(phenethylamino)propyl)sulfinyl)methyl) cyclopentane-1,2-diol], the Kd on KMT9 [1] (setting [4]) was > 1000 nM. For the same compound, the ΔTm at 500 µM at KMT9 [2] (setting [5]) is ≤ 10 °C. In addition, the IC50 against KMT9 [3] is > 10000 nM.

For `CNc1ncnc2c1ccn2[C@@H]1C[C@H](COCCCNCCc2ccccc2)[C@@H](O)[C@H]1O` [420 (291), (1R,2S,3R,5R)-3-(4-(methylamino)-7H-pyrrolo[2,3-d]pyrimidin-7-yl)-5-((3-(phenethylamino)propoxy)methyl) cyclopentane-1,2-diol], on KMT9 [1] (setting [4]), the Kd is > 1000 nM. On KMT9 [2] (setting [5]), the ΔTm at 500 µM was ≤ 10 °C. Further, at KMT9 [3], the 50% inhibitory concentration (IC50) is > 10000 nM.

Regarding `NC[C@H]1C[C@@H](n2cc3c4c(ncnc42)NCCCC3)[C@H](O)[C@@H]1O` [Compound 630, (1S,2R,3R,5R)-3-(Aminomethyl)-5-(7,8,9,10-tetrahydro-2,3,5,6-tetraazacycloocta [cd]inden-2 (6H)-yl)cyclopentane-1,2-diol], the Kd on KMT9 [1] (setting [4]) is > 1000 nM. Moreover, the ΔTm at 500 µM at KMT9 [2] (setting [5]) was ≤ 10 °C. Further, the 50% inhibitory concentration (IC50) at KMT9 [3] was > 10000 nM.

Consider `O[C@@H]1[C@H](O)[C@@H]([C@H]2CCCNC2)C[C@H]1n1cc(-c2nccs2)c2cncnc21` [Compound 402, (1S,2R,3R,5R)-3-((R)-piperidin-3-yl)-5-(5-(thiazol-2-yl)-7H-pyrrolo[2,3-a]pyrimidin-7-yl) cyclopentane-1,2-diol], for which the ΔTm at 500 µM at KMT9 [2] (setting [6]) is ≤ 10 °C.

Turning to `Nc1ncnc2c1c(Br)cn2[C@@H]1C[C@H](C(=O)NC[C@@H]2CCCNC2)[C@@H](O)[C@H]1O` [454 (326), (1S,2R,3S,4R)-4-(4-Amino-5-bromo-7H-pyrrolo[2,3-d]pyrimidin-7-yl)-2,3-dihydroxy-N-(((R)-piperidin-3-yl)methyl) cyclopentane-1-carboxamide], at KMT9 [1] (setting [4]), the Kd was in the range of 100 to 1000 nM. At KMT9 [2] (setting [5]), the ΔTm at 500 µM fell in the range of 10 to 15 °C. Moreover, the half-maximal inhibitory concentration (IC50) against KMT9 [3] was > 10000 nM.

Turning to `CNc1ncnc2c1ccn2[C@@H]1C[C@H](COCCCNCCc2cccc(Oc3ccccc3)c2)[C@@H](O)[C@H]1O` [421 (292), (1R,2S,3R,5R)-3-(4-(Methylamino)-7H-pyrrolo[2,3-d]pyrimidin-7-yl)-5-((3-((3-phenoxyphenethyl)amino)propoxy)methyl) cyclopentane-1,2-diol], the Kd on KMT9 [1] (setting [4]) is > 1000 nM. On KMT9 [2] (setting [5]), the ΔTm at 500 µM was ≤ 10 °C. Moreover, at KMT9 [3], the IC50 was > 10000 nM.

For `CNc1ncnc2c1ccn2[C@@H]1C[C@H](CNCCCNCCc2cccc(N(C)c3ccccc3)c2)[C@@H](O)[C@H]1O` [289 (186), (1S,2R,3R,5R)-3-(((3-((3-(methyl(phenyl)amino)phenethyl)amino)propyl)amino)methyl)-5-(4-(methylamino)-7H-pyrrolo[2,3-d]pyrimidin-7-yl) cyclopentane-1,2-diol], on KMT9 [1] (setting [4]), the Kd was > 1000 nM. For the same compound, the ΔTm at 500 µM at KMT9 [2] (setting [5]) was 10 to 15 °C. In addition, the IC50 against KMT9 [3] is > 10000 nM.

For the compound `O[C@@H]1[C@H](O)[C@@H]([C@@H]2CCCNC2)C[C@H]1n1cc(-c2nccs2)c2cncnc21` [Compound 401, (1S,2R,3R,5R)-3-((S)-piperidin-3-yl)-5-(5-(thiazol-2-yl)-7//pyrrolo[2,3-a]pyrimidin-7-yl) cyclopentane-1,2-diol], the ΔTm at 500 µM at KMT9 [2] (setting [6]) was ≤ 10 °C.

For `Nc1nc(Cl)nc2c1c(-c1ccn(S(=O)(=O)c3ccccc3)n1)cn2[C@@H]1C[C@H](C2CCN(CC3CC3)CC2)[C@@H](O)[C@H]1O` [Compound 520, (1R,2S,3R,5R)-3-{4-Amino-5-[1-(benzenesulfonyl)pyrazol-3-yl]-2-chloropyrrolo[2,3-d]pyrimidin-7-yl}-5-[1-(cyclopropylmethyl)piperidin-4-yl]cyclopentane-1,2-diol], on KMT9 [1] (His-tag labelled KMT9 20 nM, read-out: MST (Kd)), the Kd was ≤ 10 nM. Moreover, the ΔTm at 500 µM on KMT9 [2] (setting [6]) is > 20 °C.

Consider `Nc1ncnc2c1ncn2[C@@H]1O[C@H](C(=O)NCCCNCCc2ccc3ccccc3c2)[C@@H](O)[C@H]1O` [688 (222), (2S,3S,4R,5R)-5-(6-amino-9H-purin-9-yl)-3,4-dihydroxy-N-(3-((2-(naphthalen-2-yl)ethyl)amino)propyl) tetrahydrofuran-2-carboxamide], for which the 50% inhibitory concentration (IC50) on KMT9 [3] is > 10000 nM.

Take `CNc1ncnc2c1ccn2[C@@H]1C[C@H]([C@@H]2C[C@@H]2CCCNCCc2ccccc2)[C@@H](O)[C@H]1O` [Compound 683, (1R,2S,3R,5R)-3-(4-(methylamino)-7H-pyrrolo[2,3-d]pyrimidin-7-yl)-5-((1R,2S)-2-(3-(phenethylamino)propyl)cyclopropyl)cyclopentane-1,2-diol]: the Kd on KMT9 [1] (setting [4]) is > 1000 nM. Also, the ΔTm at 500 µM at KMT9 [2] (setting [5]) is ≤ 10 °C.

For the compound `O[C@@H]1[C@H](O)[C@@H]([C@H]2CCCNC2)C[C@H]1n1ccc2c(C(F)F)ncnc21` [Compound 403, (1R,2S,3R,5R)-3-(4-(difluoromethyl)-7H-pyrrolo[2,3-d]pyrimidin-7-yl)-5-((R)-piperidin-3-yl) cyclopentane-1,2-diol], the ΔTm at 500 µM on KMT9 [2] (setting [6]) was ≤ 10 °C.

`Nc1ncnc2c1c(-c1ccccc1)cn2[C@@H]1C[C@H](CNCCCNCCc2ccc(F)cc2)[C@@H](O)[C@H]1O` [340 (244), (1R,2S,3R,5R)-3-(4-amino-5-phenyl-7H-pyrrolo[2,3-d]pyrimidin-7-yl)-5-(((3-((4-fluorophenethyl)amino)propyl)amino)methyl) cyclopentane-1,2-diol]: on KMT9 [1] (setting [4]), the Kd was in the range of 10 to 100 nM. For the same compound, the concentration for half-maximal inhibition (IC50) against KMT9 [3] lay within 100 to 1000 nM.
